From patent US5700774A, “Compositions comprising bone morphogenic proteins and truncated parathyroid hormone related peptide, and methods of inducing cartilage by administration of same” (Genetics Institute, Inc., priority 1996, dated 1997)

Test system: cell lines derived from E13 mouse limb buds
Assay: Northern analysis of tissue specific mRNA expression in limb bud cell lines
Assay type: cell-based
Details: PTHrP1-34 alone, 100 ng/ml, 1, 2, 4 or 8 days
Method: PTHrP was tested for its effect on cell lines derived from E13 mouse limb buds either alone or in combination with BMP-2. Cells were grown to confluence in DME medium supplemented with 10% fetal calf serum (FCS). At confluence, cells were transferred to DME medium supplemented with 1% FCS and cultured for 1, 2, 4 or 8 days in the presence of either BMP-2 (100 ng/ml), PTHrP1-34 (100 ng/ml)(Peninsular Laboratories Inc). or a combination of BMP-2 and PTHrP1-34. Northern analysis was used to determine expression of tissue specific mRNAs for cartilage (proteoglycan core protein, collagen type II and decorin), bone (osteocalcin, alkaline phosphatase and collagen type I) and hypertrophic cartilage (collagen type X).

In the case of “PTHrP1-34: truncated peptide which comprises the first 34 amino acids of PTHrP (Peninsular Laboratories Inc)”, the “expression of any of the tissue specific mRNAs (cartilage, bone, hypertrophic cartilage markers)” value is reported as “did not induce expression”.
